# Columns and labels:
# [1] = target: T1, TGF-β1 (Homo sapiens, UniProt P01137); experiment: SPR competitive binding: soluble GAG competes for TGF-β1 against heparin-coated chip; settings: for ability to competitively inhibit TGF-β1 binding to immobilized heparin: 200 nM TGF-β1 pre-incubated with 5 or 10 μg GAG
# T1 construct: full length mature TGF-β1 is 112 amino acids in length
# Experimental: Biotinylated heparin was prepared based on the protocol reported by Hernaiz et al. (33). Briefly, 20 mg of heparin was filter-sterilized (0.22 μm) in 1 ml of water and incubated with 8.6 μmol of N-hydroxysuccinimide-biotin (NHS-biotin) (Pierce) in 20 μl of dimethyl sulfoxide (DMSO) for 2 h at 4° C. The biotinylated heparin was then extensively dialyzed (7000 MWCO) to remove unreacted biotin. Immobilization of the biotinylated heparin onto a streptavidin (SA) sensor chip (GE Healthcare) was carried out using the immobilization wizard on the Biacore T100 (GE Healthcare) with a targeted immobilization level of approximately 40 response units (RUs). HBS-EP running buffer (10 mM HEPES, 150 mM NaCl, 3.0 mM EDTA, 0.05% (v/v) Tween 20, pH 7.4) was used for the immobilization.
# TGF-β1-heparin interactions were effected by preparing a series of TGF-β1 protein samples (50 to 800 nM final concentration) diluted in HBS-EP-0.1 running buffer (0.1% instead of 0.05% (v/v) Tween 20). […] The sample solutions were then injected over the heparin-coated chip at a flow rate of 30 μl/min for 120 s, with HBS-EP-0.1 being subsequently passed over the chip for a further 1200 s to monitor TGF-β1 dissociation. After dissociation, the sensor surface on the chip was regenerated by 2 washes of 2 M NaCl injected at 30 μl/min for 60 s. The response was measured as a function of time (sensogram) at 25° C. The maximum binding response for each condition was normalized to the response obtained from TGF-β1 alone.
# [2] = target: T1, TGF-β1; experiment: GAG-binding plate assay; settings: wells coated with 5 μg/ml GAG
# Experimental: GAGs are immobilized in each well and then challenged with TGF-β1 according to the manufacturer's instructions. Briefly, triplicate wells are first pre-coated with 5 μg/ml of heparin, HS^PM, HS16^+ve or HS16^−ve in standard assay buffer (SAB: 100 mM NaCl, 50 mM sodium acetate, 0.2% v/v Tween 20, pH 7.2), and then incubated overnight at room temperature. The plates are next washed carefully three times with SAB, blocked with 250 μl of blocking solution (0.4% w/v fish skin gelatine, Sigma-Aldrich, in SAB) and incubated for 1 h at 37° C. TGF-β1 was then dissolved in blocking solution at a concentration of 100, 200, or 400 ng/ml. The plates are washed three times with SAB and each dilution of protein (200 μl) is dispensed into triplicate wells and incubated for 2 h at 37° C., rinsed with SAB and 200 μl of 750 ng/ml monoclonal mouse anti-TGF-β1 antibody (MAB2401, R&D Systems) added in blocking solution. Plates are then incubated for 1 h at 37° C., washed with SAB, and 200 μl of 1 μg/ml polyclonal goat anti-mouse biotinylated antibody (ab6788, Abcam) added in blocking solution. Again, plates are incubated for 1 h at 37° C., washed with SAB, and 200 μl of 220 ng/ml ExtrAvidin AP (Sigma-Aldrich) is added in blocking solution, incubated for 30 min at 37° C., and then rinsed with SAB. Finally, 200 μl of development reagent (SigmaFAST p-Nitrophenyl phosphate, Sigma-Aldrich) is added, incubated at 37° C. for 40 min and read at 405 nm within 1 h.
# To determine the ability of TGF-β1 to bind to heparin, we utilized positively-charged GAG-binding plates (Iduron) as a capture substrate. GAGs were immobilized in each well and then challenged with TGF-β1 according to the manufacturer's instructions. Briefly, triplicate wells were first pre-coated with 5 μg/ml of full length heparin, size-fractionated heparin (dp14, 16, 18, 20, 22 and 24) or selectively […] heparin prepared in standard assay buffer (SAB: 100 mM NaCl, 50 mM sodium acetate, 0.2% v/v Tween 20, pH 7.2), and then incubated overnight at room temperature. The plates were next washed carefully three times with SAB, blocked with 250 μl of blocking solution (0.4% w/v fish skin gelatine, Sigma-Aldrich, in SAB) and incubated for 1 h at 37° C. TGF-β1 was then dissolved in blocking solution at a concentration of 100, 200, or 400 ng/ml. The plates were washed three times with SAB and each dilution of protein (200 μl) was dispensed into triplicate wells and incubated for 2 h at 37° C., rinsed with SAB and 200 μl of 750 ng/ml monoclonal mouse anti-TGF-β1 antibody (MAB2401, R&D Systems) added in blocking solution. […] Finally, 200 μl of development reagent (SigmaFAST p-Nitrophenyl phosphate, Sigma-Aldrich) was added, incubated at 37° C. for 40 min and read at 405 nm within 1 h.
# [3] = test system: TGF-β1 signaling (pSMAD2, pSMAD3) in hMSCs; experiment: Western blotting of pSMAD2/pSMAD3 in hMSCs treated with TGF-β1 and GAG; type: cell-based, human; settings: TGF-β1 1 ng/ml pre-incubated with 10 μg/ml GAG; 6 h
# Experimental: Primary hMSCs (Lonza) were isolated from the bone marrow mononuclear cells of a young healthy adult human donor by plastic adherence and characterized as previously described (30,31). The adherent cells were maintained in a basal media consisting of DMEM-low glucose (1000 mg/l, DMEM-LG) supplemented with 10% fetal calf serum, 100 U/ml penicillin, 100 μg/ml streptomycin and 2 mM L-glutamine, and cultured under standard conditions at 37° C. and 5% CO2 in a humidified atmosphere. Media replacement was every three days. Cells were detached with 0.125% trypsin/Versene (pH 7.0) upon reaching 75-80% confluence, and re-plated at a density of 3,000 cells/cm^2 under the same culture conditions. All experiments were carried out with cells at passage 5.
# Human MSCs were cultured in 6-well plates in basal media for 24 h at a density of 10,000 cells/cm^2. TGF-β1 treatments were then prepared at either 1 ng/ml or 5 ng/ml alone or in the presence of either 10 μg/ml or 40 μg/ml of full length heparin, or 1 ng/ml of TGF-β1 with 10 μg/ml size-fractionated or selectively desulfated heparin, HS^PM, HS16+ or HS16−, and incubated at room temperature for 10 min before being added to the cells. Latent TGF-β1 (LTGF-β1) treatments were similarly prepared at 3.3 ng/ml alone or with 10 μg/ml of the various GAGs described above. For inhibitor studies, the cells were pre-treated for 30 min with 10 μM SB431542 (Sigma-Aldrich) or DMSO before treatment with TGF-β1. […] Samples were then immunoblotted with antibodies against SMAD2/3 (#3102, Cell Signaling), phosphorylated SMAD2 (pSMAD2, #3108, Cell Signaling), phosphorylated SMAD3 (pSMAD3, #9520, Cell Signaling) and actin (MAB1501R, Millipore). Densitometry was carried out using Quantity One software (version 4.6.6, Bio-Rad).
# [4] = test system: chondrogenic differentiation of hMSCs; experiment: qPCR of day 3 chondrogenic micromass pellets (Example 1); type: cell-based, human; settings: 3-day old pellets; SB431542 10 μM vs DMSO
# Experimental: Chondrogenic differentiation was carried out using a modified micromass culture system as described by Zhang et al. (32). Briefly, passage 4 hMSCs were harvested and resuspended in chemically defined chondrogenic media (PT-3003, Lonza) at 2×10^7 cells/ml. Droplets of 12.5 μl were then seeded into the middle of each well in a 24-well plate and left to adhere at 37° C. for 2 h, after which, 500 μl of chondrogenic media supplemented with either 10 ng/ml of TGF-β1 (100-21C, PeproTech) alone (Media) or TGF-β1 with 10 μg/ml of heparin (Sigma-Aldrich) (Media+Hep) was added to each well. The cell droplets coalesced into spherical masses after 24 h and the micromasses harvested on day 3. Human MSCs were cultured in 6-well plates in basal media for 24 h at a density of 10,000 cells/cm^2. TGF-β1 treatments were then prepared at either 1 ng/ml or 5 ng/ml alone or in the presence of either 10 μg/ml or 40 μg/ml of full length heparin, or 1 ng/ml of TGF-β1 with 10 μg/ml size-fractionated or selectively desulfated heparin, HS^PM, HS16+ or HS16−, and incubated at room temperature for 10 min before being added to the cells. Latent TGF-β1 (LTGF-β1) treatments were similarly prepared at 3.3 ng/ml alone or with 10 μg/ml of the various GAGs described above. For inhibitor studies, the cells were pre-treated for 30 min with 10 μM SB431542 (Sigma-Aldrich) or DMSO before treatment with TGF-β1. The cells were then subjected to the various TGF-β1 treatments for 1, 6 or 24 h and lysed in 2× Laemmli buffer, before being resolved on a 4-12% SDS-PAGE gel. Samples were then immunoblotted with antibodies against SMAD2/3 (#3102, Cell Signaling), phosphorylated SMAD2 (pSMAD2, #3108, Cell Signaling), phosphorylated SMAD3 (pSMAD3, #9520, Cell Signaling) and actin (MAB1501R, Millipore). Densitometry was carried out using Quantity One software (version 4.6.6, Bio-Rad). Total RNA was isolated from chondrogenic micromass pellets using TRIZOL reagent (Invitrogen, Life Technologies) according to the manufacturer's protocol. Reverse transcription was carried out on 1 μg RNA using the SuperScript® VILO™ cDNA Synthesis Kit (Invitrogen, Life Technologies) following the manufacturer's instructions, with the incubation at 42° C. being carried out for 2 h instead of 1 h. Each qPCR contained 40 ng cDNA, 1 μl TaqMan® primer-probe mix per gene, and 10 μl Taqman® Fast Universal PCR Master Mix (Applied Biosystems, Life Technologies) in a final volume of 20 μl. Thermal cycling conditions were 95° C. for 20 s, followed by 45 cycles of 95° C. for 3 s and 60° C. for 30 s. Each qPCR was run in duplicate and gene expression was normalized to HPRT1 expression to obtain the ΔCt value. […] Relative expression levels for each primer set were expressed as fold changes by the 2^−ΔΔCt method (36). […]
# T1 sequence (P01137 279-390 limits assumed): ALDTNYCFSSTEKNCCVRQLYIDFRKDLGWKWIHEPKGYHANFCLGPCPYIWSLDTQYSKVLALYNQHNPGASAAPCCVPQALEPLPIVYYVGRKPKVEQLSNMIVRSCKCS
Molecule,ability to competitively inhibit TGF-β1 binding to immobilized heparin [1],"reduction of TGF-β1 binding compared to fully sulfated, full-length heparin [2]",pSMAD2 and pSMAD3 levels [3],"TGF-β1 binding to immobilized GAG ([2]; TGF-β1 100, 200 or 400 ng/ml)",COMP gene expression [4],SOX9 gene expression [4],"loss of TGF-β1-binding ability ([1]; 200 nM TGF-β1 with 5 or 10 μg GAG, relative to heparin)"
2-O-desulfated heparin,minimal effect,about 60%,increase to levels beyond those seen in heparin-treated cells,,,,
N-desulfated heparin,abrogated,,did not lead to an increase in pSMAD levels,essentially abolished,,,
NC(=O)c1ccc(-c2nc(-c3ccc4c(c3)OCO4)c(-c3ccccn3)[nH]2)cc1 [SB431542],,,,,reduction,reduction,
6-O-desulfated heparin,,approximately 80%,stabilization of pSMAD levels,,,,approximately 40%
